Laboratory results from ChEMBL document CHEMBL2424579, “Quinazolin-4-one derivatives as selective histone deacetylase-6 inhibitors for the treatment of Alzheimer's disease” (J Med Chem, 2013).
Calls of active or inactive are those of the source. The rule behind the calls is not given here.

Experiments:
SH-SY5Y [1] = assay: Increase of synaptic activity in human SH-SY5Y cells after 5 days by fluorescence assay; format: functional, cell-based; settings: 120 h
SH-SY5Y [2] = assay: Induction of neurite outgrowth in human SH-SY5Y cells after 5 days; format: functional, cell-based; settings: 120 h
PC-12 [3] = assay: Increase of synaptic activity in rat PC12 cells after 5 days by fluorescence assay; format: functional, cell-based; settings: PC-12, 120 h
SH-SY5Y [4] = assay: Induction of neurite outgrowth in human SH-SY5Y cells at 10 uM after 5 days; format: functional, cell-based
PC-12 [5] = assay: Induction of neurite outgrowth in rat PC12 cells after 5 days; format: functional, cell-based; settings: PC-12, 120 h
PC-12 [6] = assay: Induction of neurite outgrowth in rat PC12 cells at 10 uM after 5 days; format: functional, cell-based
Histone deacetylase 11 = target: T1, Histone deacetylase 11 (Homo sapiens, UniProt Q96DB2); assay: Inhibition of human recombinant HDAC11 expressed in baculovirus/sf9 cells using RHKKAc as substrate
T1 sequence (Q96DB2 whole entry): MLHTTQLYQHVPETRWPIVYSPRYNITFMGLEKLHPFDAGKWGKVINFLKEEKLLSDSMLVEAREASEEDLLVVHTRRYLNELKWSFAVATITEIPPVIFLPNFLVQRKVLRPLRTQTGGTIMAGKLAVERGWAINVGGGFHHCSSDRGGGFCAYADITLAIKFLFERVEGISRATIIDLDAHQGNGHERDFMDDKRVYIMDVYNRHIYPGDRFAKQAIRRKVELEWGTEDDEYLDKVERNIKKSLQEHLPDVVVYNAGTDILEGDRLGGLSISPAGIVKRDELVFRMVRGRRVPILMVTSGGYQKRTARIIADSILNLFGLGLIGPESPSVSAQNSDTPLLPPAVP

[7] = target: T2, Protein deacetylase HDAC6 (Homo sapiens, UniProt Q9UBN7); assay: Inhibition of human recombinant HDAC6 expressed in baculovirus/sf9 cells using RHKKAc as substrate
T2 sequence (Q9UBN7 whole entry): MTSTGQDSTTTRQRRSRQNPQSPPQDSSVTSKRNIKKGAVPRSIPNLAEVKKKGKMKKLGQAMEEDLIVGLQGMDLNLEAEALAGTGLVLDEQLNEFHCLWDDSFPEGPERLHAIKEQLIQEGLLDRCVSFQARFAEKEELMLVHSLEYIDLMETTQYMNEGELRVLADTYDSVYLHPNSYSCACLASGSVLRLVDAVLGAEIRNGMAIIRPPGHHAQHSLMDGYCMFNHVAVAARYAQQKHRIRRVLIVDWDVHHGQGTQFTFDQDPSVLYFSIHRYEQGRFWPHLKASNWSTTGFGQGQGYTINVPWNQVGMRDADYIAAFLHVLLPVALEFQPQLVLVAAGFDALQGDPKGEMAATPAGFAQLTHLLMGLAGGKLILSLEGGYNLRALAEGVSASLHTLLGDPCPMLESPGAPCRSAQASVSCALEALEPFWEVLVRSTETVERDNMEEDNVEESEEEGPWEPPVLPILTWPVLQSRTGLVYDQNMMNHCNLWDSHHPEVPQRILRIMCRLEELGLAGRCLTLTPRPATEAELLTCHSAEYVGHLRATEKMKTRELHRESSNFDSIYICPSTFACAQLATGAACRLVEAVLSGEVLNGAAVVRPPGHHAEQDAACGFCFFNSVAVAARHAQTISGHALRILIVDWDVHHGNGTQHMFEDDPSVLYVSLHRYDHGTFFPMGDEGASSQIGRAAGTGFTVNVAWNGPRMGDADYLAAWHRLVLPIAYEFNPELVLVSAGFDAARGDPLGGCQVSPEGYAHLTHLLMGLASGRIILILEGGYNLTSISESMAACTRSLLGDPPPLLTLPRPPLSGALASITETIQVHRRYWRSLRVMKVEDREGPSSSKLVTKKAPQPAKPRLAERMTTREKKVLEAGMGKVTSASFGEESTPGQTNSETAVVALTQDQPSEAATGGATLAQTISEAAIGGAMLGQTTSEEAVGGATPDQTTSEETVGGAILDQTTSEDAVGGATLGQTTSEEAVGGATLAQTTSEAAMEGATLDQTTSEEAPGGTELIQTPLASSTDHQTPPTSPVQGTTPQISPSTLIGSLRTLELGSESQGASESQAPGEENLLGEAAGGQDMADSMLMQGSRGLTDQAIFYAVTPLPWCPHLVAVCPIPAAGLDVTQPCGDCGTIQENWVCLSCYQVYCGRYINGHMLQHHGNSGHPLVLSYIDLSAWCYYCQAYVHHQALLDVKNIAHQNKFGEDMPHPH

Histone deacetylase 8 = target: T3, Histone deacetylase 8 (Homo sapiens, UniProt Q9BY41); assay: Inhibition of human recombinant HDAC8 expressed in baculovirus/sf9 cells using RHKAcKAc as substrate
T3 sequence (Q9BY41 whole entry): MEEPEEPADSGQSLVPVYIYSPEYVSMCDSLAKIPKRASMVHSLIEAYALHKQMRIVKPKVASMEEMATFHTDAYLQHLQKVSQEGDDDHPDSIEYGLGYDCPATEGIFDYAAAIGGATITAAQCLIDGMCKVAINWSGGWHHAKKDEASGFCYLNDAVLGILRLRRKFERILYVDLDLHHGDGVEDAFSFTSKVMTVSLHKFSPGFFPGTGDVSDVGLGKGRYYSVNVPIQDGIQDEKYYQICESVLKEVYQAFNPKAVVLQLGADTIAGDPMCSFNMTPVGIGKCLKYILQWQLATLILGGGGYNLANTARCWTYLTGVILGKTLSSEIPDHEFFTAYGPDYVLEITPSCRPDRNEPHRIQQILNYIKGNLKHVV

Histone deacetylase 1 = Histone deacetylase 1 (Homo sapiens, UniProt Q13547); assay: Inhibition of human recombinant HDAC1 expressed in baculovirus/sf9 cells using RHKKAc as substrate
Histone deacetylase 2 = Histone deacetylase 2 (Homo sapiens, UniProt Q92769); assay: Inhibition of human recombinant HDAC2 expressed in baculovirus/sf9 cells using RHKKAc as substrate
Vero = assay: Cytotoxicity against african green monkey Vero cells at 25 uM; format: cell-based; settings: chlorocebus sabaeus
[8] = Cytotoxicity against human SH-SY5Y cells at 25 uM; format: cell-based
PC-12 [9] = assay: Cytotoxicity against rat PC12 cells at 25 uM; format: cell-based; settings: pc-12, 25 µM
[10] = target: T4, Amyloid-beta precursor protein (Homo sapiens, UniProt P05067); assay: Inhibition of amyloid beta aggregation (unknown origin) after 4 hrs by thioflavin S assay in absence of Zn2+
PC-12 [11] = assay: Induction iof GAP-43 protein expression in rat PC12 cells after 48 hrs by Western blotting analysis; format: functional, cell-based
[12] = target: Poly [ADP-ribose] polymerase 1 (Homo sapiens) (UniProt P09874); assay: Inhibition of PARP1 (unknown origin) up to 25 uM
[13] = target: T4, Amyloid-beta precursor protein; assay: Inhibition of amyloid beta aggregation (unknown origin) after 4 hrs by thioflavin S assay in presence of Zn2+
Homo sapiens [14] = organism: Homo sapiens; assay: Selectivity index, ratio of IC50 for human recombinant HDAC1 to IC50 for human recombinant HDAC6
Homo sapiens [15] = organism: Homo sapiens; assay: Selectivity index, ratio of IC50 for human recombinant HDAC8 to IC50 for human recombinant HDAC6

T4 sequence (P05067 whole entry): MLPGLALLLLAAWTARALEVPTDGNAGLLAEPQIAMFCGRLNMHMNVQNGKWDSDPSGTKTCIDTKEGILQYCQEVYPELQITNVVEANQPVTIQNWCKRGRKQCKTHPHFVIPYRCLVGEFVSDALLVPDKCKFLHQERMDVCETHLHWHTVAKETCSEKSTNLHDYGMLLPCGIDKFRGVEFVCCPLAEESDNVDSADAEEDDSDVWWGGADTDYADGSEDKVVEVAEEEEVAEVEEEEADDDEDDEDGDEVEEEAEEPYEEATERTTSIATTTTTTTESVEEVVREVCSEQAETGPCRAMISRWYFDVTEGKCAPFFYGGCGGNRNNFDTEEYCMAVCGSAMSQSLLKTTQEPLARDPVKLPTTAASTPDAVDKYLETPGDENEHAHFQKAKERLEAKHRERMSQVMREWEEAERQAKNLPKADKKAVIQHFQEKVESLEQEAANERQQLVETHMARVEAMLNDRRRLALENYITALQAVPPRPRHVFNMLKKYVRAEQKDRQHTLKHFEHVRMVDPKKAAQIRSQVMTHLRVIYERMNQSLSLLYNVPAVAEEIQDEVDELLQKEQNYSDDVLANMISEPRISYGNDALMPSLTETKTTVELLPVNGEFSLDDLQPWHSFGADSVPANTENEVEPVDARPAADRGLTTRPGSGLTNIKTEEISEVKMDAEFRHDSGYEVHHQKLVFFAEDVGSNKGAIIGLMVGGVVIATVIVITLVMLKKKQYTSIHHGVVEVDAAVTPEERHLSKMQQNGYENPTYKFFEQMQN
Histone deacetylase 1, sequence (Q13547 whole entry): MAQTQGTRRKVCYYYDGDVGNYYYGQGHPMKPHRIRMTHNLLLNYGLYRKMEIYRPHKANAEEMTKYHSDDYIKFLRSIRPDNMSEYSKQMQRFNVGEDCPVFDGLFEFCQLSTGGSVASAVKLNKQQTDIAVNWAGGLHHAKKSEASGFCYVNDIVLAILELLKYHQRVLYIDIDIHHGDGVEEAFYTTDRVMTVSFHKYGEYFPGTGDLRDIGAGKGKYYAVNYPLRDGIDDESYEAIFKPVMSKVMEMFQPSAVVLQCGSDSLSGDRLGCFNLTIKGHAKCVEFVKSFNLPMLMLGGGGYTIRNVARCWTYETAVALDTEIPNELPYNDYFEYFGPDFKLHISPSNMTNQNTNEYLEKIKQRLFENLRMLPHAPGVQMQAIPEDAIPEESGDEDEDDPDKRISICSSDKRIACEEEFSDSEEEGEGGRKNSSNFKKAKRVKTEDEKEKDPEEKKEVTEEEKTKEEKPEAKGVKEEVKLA
Histone deacetylase 2, sequence (Q92769 whole entry): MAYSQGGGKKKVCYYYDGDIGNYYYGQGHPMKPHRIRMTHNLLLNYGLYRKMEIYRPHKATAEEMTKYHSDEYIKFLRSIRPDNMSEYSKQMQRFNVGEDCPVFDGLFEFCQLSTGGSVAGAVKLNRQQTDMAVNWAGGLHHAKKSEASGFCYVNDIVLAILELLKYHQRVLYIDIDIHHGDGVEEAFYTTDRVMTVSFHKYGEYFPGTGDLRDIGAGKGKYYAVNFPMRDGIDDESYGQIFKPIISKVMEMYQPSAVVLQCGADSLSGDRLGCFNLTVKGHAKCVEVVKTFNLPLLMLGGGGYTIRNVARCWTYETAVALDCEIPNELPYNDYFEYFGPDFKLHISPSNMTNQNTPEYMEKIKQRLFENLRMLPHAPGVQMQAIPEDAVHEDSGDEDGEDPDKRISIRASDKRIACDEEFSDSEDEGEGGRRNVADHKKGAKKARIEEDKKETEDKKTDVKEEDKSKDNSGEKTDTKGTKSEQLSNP
Poly [ADP-ribose] polymerase 1 (Homo sapiens), sequence (P09874 whole entry): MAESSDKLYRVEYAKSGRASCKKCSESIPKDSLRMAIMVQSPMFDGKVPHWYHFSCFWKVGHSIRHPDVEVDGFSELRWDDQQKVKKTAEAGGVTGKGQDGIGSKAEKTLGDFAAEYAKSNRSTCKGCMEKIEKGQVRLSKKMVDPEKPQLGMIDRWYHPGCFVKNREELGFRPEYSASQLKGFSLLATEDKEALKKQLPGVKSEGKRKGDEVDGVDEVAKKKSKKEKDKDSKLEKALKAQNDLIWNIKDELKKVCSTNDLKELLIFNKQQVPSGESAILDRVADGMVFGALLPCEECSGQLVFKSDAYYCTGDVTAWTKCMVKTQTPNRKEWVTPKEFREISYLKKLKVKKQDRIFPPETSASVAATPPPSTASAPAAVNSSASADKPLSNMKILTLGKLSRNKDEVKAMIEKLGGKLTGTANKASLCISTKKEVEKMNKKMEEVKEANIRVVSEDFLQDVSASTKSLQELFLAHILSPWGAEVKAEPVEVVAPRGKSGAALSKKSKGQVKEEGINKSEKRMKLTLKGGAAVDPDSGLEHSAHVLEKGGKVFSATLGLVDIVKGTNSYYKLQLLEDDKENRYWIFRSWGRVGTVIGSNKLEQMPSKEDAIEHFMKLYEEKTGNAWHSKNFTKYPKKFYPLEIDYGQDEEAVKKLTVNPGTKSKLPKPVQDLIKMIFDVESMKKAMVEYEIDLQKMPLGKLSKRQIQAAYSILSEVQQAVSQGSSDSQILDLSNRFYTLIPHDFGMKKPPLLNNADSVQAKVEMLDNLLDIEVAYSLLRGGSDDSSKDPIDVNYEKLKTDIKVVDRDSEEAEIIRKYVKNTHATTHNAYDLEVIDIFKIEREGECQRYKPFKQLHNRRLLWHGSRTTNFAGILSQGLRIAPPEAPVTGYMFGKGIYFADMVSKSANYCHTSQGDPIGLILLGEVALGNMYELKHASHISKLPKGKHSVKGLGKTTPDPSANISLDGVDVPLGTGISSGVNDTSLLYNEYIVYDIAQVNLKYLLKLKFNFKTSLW

IC50 [13] [µM] | Compound | EC50 (SH-SY5Y [1]) [µM] | EC50 (SH-SY5Y [2]) [µM] | EC50 (PC-12 [3]) [µM] | Activity (SH-SY5Y [4]) | EC50 (PC-12 [5]) [µM] | Activity (PC-12 [6]) | IC50 (Histone deacetylase 11) [µM] | IC50 [7] [µM] | IC50 (Histone deacetylase 8) [µM] | IC50 (Histone deacetylase 1) [µM] | IC50 (Histone deacetylase 2) [µM] | Activity (Vero) | Activity [8] | Activity (PC-12 [9]) | IC50 [10] [µM] | Activity (PC-12 [11]) | inhibition [12] | Ratio IC50 (Homo sapiens [14]) | Ratio IC50 (Homo sapiens [15])
 | CCc1nc2cc(/C=C/C(=O)NO)ccc2c(=O)n1CCc1ccc(F)cc1 | 22.2 | > 25 | 13.9 | Active | 18.4 | Active | 4.25 | 0.043 | 0.891 | 2.11 | 6.88 | Non-toxic | Non-toxic | Non-toxic |  |  |  |  | 
 | O=C(/C=C/c1ccc2c(=O)n(CCc3ccccc3)cnc2c1)NO | 4.9 | 15 | 14.5 | Active | > 25 | Active | 0.73 | 0.035 | 0.6 | 0.495 | 1.22 | Non-toxic | Non-toxic | Non-toxic | > 50 |  |  |  | 
 | CCc1nc2cc(/C=C/C(=O)NO)ccc2c(=O)n1CCc1ccccc1 | 0.9 | 11 | 7.2 | Active | 5.3 | Active | 2.95 | 0.011 | 1.18 | 1.19 | 4.81 | Non-toxic | Non-toxic | Non-toxic | > 50 | Dose-dependent effect | inactive |  | 
 | CCc1nc2ccc(Cc3ccc(C(=O)NO)cc3)cc2c(=O)n1CCc1ccccc1 | 4.1 | 18.4 | 2.9 | Active | 9.4 | Active | 0.656 | 0.011 | 0.099 | 1.05 | 3.61 | Non-toxic | Non-toxic | Non-toxic |  |  |  |  | 
43.7 | O=C(O)c1cccnc1 [NIACIN] |  |  |  |  |  |  |  |  |  |  |  |  |  |  | 13.1 |  |  |  | 
 | CCc1nc2cc(/C=C/C(=O)NO)ccc2c(=O)n1CCc1ccc(OC)cc1 | 20.6 | > 25 | 20.6 |  | 7.2 |  | 3.91 | 0.041 | 0.594 | 1.81 | 4.78 | Non-toxic | Non-toxic | Non-toxic |  |  |  |  | 
 | CCc1nc2cc(Cl)c(/C=C/C(=O)NO)cc2c(=O)n1CCc1ccccc1 |  |  |  |  |  |  | > 30 | 0.747 | 1.88 | > 10 | > 12 | Non-toxic | Non-toxic | Non-toxic |  |  |  | > 13 | 3
